Laboratory results as given in patent US10787452B2 (Vertex Pharmaceuticals Incorporated, priority 2012, dated 2020).

test system: HCT116 colorectal cancer cells; experiment: Cisplatin sensitization assay (96 h cell viability MTS); assay type: cell-based; settings: 96 h MTS, compound plus Cisplatin;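 also: compound concentration needed to lower the Cisplatin-alone IC50 by a set fold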
Procedure, shortened: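 Full-matrix combination: compound × cisplatin, 2-fold dilutions from 10 μM top final, co-added; 96 h, 37° C, 5% CO2; MTS read-out after 1 h.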

Structure (SMILES) | Cisplatin Sensitization Assay
Nc1nn2cc(F)cnc2c1C(=O)Nc1cnccc1-c1ccc(C(=O)N2CCN3CCC2CC3)cc1F [I-C-50, N-(4-(4-(1,4-diazabicyclo[3.2.2]nonane-4-carbonyl)-2-fluorophenyl)pyridin-3-yl)-2-amino-6-fluoropyrazolo[1,5-a]pyrimidine-3-carboxamide] | +++ (Compounds with a Cisplatin sensitization value of <0.02 μM are marked with “+++.”)
Nc1nn2cc(F)cnc2c1C(=O)Nc1cncc(F)c1N1CCC(C(=O)O)CC1 [I-N-92, 1-(3-(2-amino-6-fluoropyrazolo[1,5-a]pyrimidine-3-carboxamido)-5-fluoropyridin-4-yl)piperidine-4-carboxylic Acid] | + (Compounds with a Cisplatin sensitization value >0.2 μM but <5 μM are marked with “+.”)
Nc1nn2cc(F)cnc2c1C(=O)Nc1cnccc1N1CCN2CCOC[C@H]2C1 [I-N-116, (R)-2-amino-6-fluoro-N-(4-(hexahydropyrazino[2,1-c][1,4]oxazin-8(1H)-yl)pyridin-3-yl)pyrazolo[1,5-a]pyrimidine-3-carboxamide] | ++ (Compounds with a Cisplatin sensitization value >0.02 μM but <0.2 μM are marked with “++.”)
Nc1nn2cc(Cl)cnc2c1C(=O)Nc1cnccc1N1CCn2cncc2C1 [I-N-75, 2-amino-6-chloro-N-(4-(5,6-dihydroimidazo[1,5-a]pyrazin-7(8H)-yl)pyridin-3-yl)pyrazolo[1,5-a]pyrimidine-3-carboxamide] | +++ (Compounds with a Cisplatin sensitization value of <0.02 μM are marked with “+++.”)
COCCn1cncc1-c1ccncc1NC(=O)c1c(N)nn2cc(F)cnc12 [I-C-83, 2-amino-6-fluoro-N-(4-(1-(2-methoxyethyl)-1H-imidazol-5-yl)pyridin-3-yl)pyrazolo[1,5-a]pyrimidine-3-carboxamide] | ++ (Compounds with a Cisplatin sensitization value >0.02 μM but <0.2 μM are marked with “++.”)
CS(=O)(=O)C1CN(C(=O)C2CCN(c3c(F)cncc3NC(=O)c3c(N)nn4cc(F)cnc34)CC2)C1 [I-G-86, 2-amino-6-fluoro-N-(5-fluoro-4-(4-(3-(methylsulfonyl)azetidine-1-carbonyl)piperidin-1-yl)pyridin-3-yl)pyrazolo[1,5-a]pyrimidine-3-carboxamide] | +++ (Compounds with a Cisplatin sensitization value of <0.02 μM are marked with “+++.”)
C[C@@H]1CN(C2COC2)CCN1c1ccncc1NC(=O)c1c(N)nn2cc(F)cnc12 [I-N-23, (R)-2-amino-6-fluoro-N-(4-(2-methyl-4-(oxetan-3-yl)piperazin-1-yl)pyridin-3-yl)pyrazolo[1,5-a]pyrimidine-3-carboxamide] | +++ (Compounds with a Cisplatin sensitization value of <0.02 μM are marked with “+++.”)
N#CCc1cnc2c(C(=O)Nc3cnccc3N3CCCCC3)c(N)nn2c1 [I-N-84, 2-amino-6-(cyanomethyl)-N-(4-(piperidin-1-yl)pyridin-3-yl)pyrazolo[1,5-a]pyrimidine-3-carboxamide] | +++ (Compounds with a Cisplatin sensitization value of <0.02 μM are marked with “+++.”)
CN(C)C1CCN(C2CCN(c3ccncc3NC(=O)c3c(N)nn4cc(Cl)cnc34)CC2)C1 (stereo not shown) [I-N-106, 2-amino-6-chloro-N-(4-(4-(3-(dimethylamino)pyrrolidin-1-yl)piperidin-1-yl)pyridin-3-yl)pyrazolo[1,5-a]pyrimidine-3-carboxamide] | +++ (Compounds with a Cisplatin sensitization value of <0.02 μM are marked with “+++.”)
Nc1nn2cc(F)cnc2c1C(=O)Nc1cnccc1-c1ccc(S(=O)(=O)N2CCC2)cc1 [I-C-64, 2-amino-N-(4-(4-(azetidin-1-ylsulfonyl)phenyl)pyridin-3-yl)-6-fluoropyrazolo[1,5-a]pyrimidine-3-carboxamide] | +++ (Compounds with a Cisplatin sensitization value of <0.02 μM are marked with “+++.”)
Nc1nn2cc(Cl)cnc2c1C(=O)Nc1cnccc1OC1CCCNC1 (stereo not shown) [I-O-75, 2-amino-6-chloro-N-(4-(piperidin-3-yloxy)pyridin-3-yl)pyrazolo[1,5-a]pyrimidine-3-carboxamide] | ++ (Compounds with a Cisplatin sensitization value >0.02 μM but <0.2 μM are marked with “++.”)
Cc1nnc(N2CCN(c3ccncc3NC(=O)c3c(N)nn4cc(F)cnc34)CC2)o1 [I-N-256, 2-amino-6-fluoro-N-(4-(4-(5-methyl-1,3,4-oxadiazol-2-yl)piperazin-1-yl)pyridin-3-yl)pyrazolo[1,5-a]pyrimidine-3-carboxamide] | ++ (Compounds with a Cisplatin sensitization value >0.02 μM but <0.2 μM are marked with “++.”)
Nc1nn2cc(Cl)cnc2c1C(=O)Nc1cnccc1N1CCN2CCC[C@@H]2C1 [I-N-65, (R)-2-amino-6-chloro-N-(4-(hexahydropyrrolo[1,2-a]pyrazin-2(1H)-yl)pyridin-3-yl)pyrazolo[1,5-a]pyrimidine-3-carboxamide] | + (Compounds with a Cisplatin sensitization value >0.2 μM but <5 μM are marked with “+.”)
CN(C)C1CCN(c2ccncc2NC(=O)c2c(N)nn3cc(Cl)cnc23)CC1 [I-N-37, 2-amino-6-chloro-N-(4-(4-(dimethylamino)piperidin-1-yl)pyridin-3-yl)pyrazolo[1,5-a]pyrimidine-3-carboxamide] | ++ (Compounds with a Cisplatin sensitization value >0.02 μM but <0.2 μM are marked with “++.”)
Nc1nn2cc(F)cnc2c1C(=O)Nc1cncc(F)c1N1CCN(C(=O)C2CN3CCC2CC3)CC1 (stereo not shown) [I-N-130, 2-amino-6-fluoro-N-(5-fluoro-4-(4-(quinuclidine-3-carbonyl)piperazin-1-yl)pyridin-3-yl)pyrazolo[1,5-a]pyrimidine-3-carboxamide] | ++ (Compounds with a Cisplatin sensitization value >0.02 μM but <0.2 μM are marked with “++.”)
Nc1nn2cc(F)cnc2c1C(=O)Nc1cnccc1N1CCC(c2ncon2)CC1 [I-N-241, N-(4-(4-(1,2,4-oxadiazol-3-yl)piperidin-1-yl)pyridin-3-yl)-2-amino-6-fluoropyrazolo[1,5-a]pyrimidine-3-carboxamide] | +++ (Compounds with a Cisplatin sensitization value of <0.02 μM are marked with “+++.”)
CN(C)CC1(O)CCN(c2ccncc2NC(=O)c2c(N)nn3cc(Cl)cnc23)CC1 [I-N-36, 2-amino-6-chloro-N-(4-(4-((dimethylamino)methyl)-4-hydroxypiperidin-1-yl)pyridin-3-yl)pyrazolo[1,5-a]pyrimidine-3-carboxamide] | ++ (Compounds with a Cisplatin sensitization value >0.02 μM but <0.2 μM are marked with “++.”)

molecular target: full-length ATR (Homo sapiens (Human), UniProt Q13535); experiment: ATR inhibition assay (radioactive-phosphate incorporation); assay type: biochemical; settings: 5 nM full-length ATR, Ki(app)
Procedure: Compounds were screened for their ability to inhibit ATR kinase using a radioactive-phosphate incorporation assay. Assays were carried out in a mixture of 50 mM Tris/HCl (pH 7.5), 10 mM MgCl2 and 1 mM DTT. Final substrate concentrations were 10 μM [y-33P]ATP (3 mCi 33P ATP/mmol ATP, Perkin Elmer) and 800 μM target peptide ([…]) (SEQ ID NO:1).
Assays were carried out at 25° C. in the presence of 5 nM full-length ATR. An assay stock buffer solution was prepared containing all of the reagents listed above, with the exception of ATP and the test compound of interest. 13.5 μL of the stock solution was placed in a 96 well plate followed by addition of 2 μL of DMSO stock containing serial dilutions of the test compound (typically starting from a final concentration of 15 μM with 3-fold serial dilutions) in duplicate (final DMSO concentration 7%). The plate was pre-incubated for 10 minutes at 25° C. and the reaction initiated by addition of 15 μL [γ-33P]ATP (final concentration 10 μM).
The reaction was stopped after […] by the addition of 30 μL 0.1M phosphoric acid containing 2 mM ATP. […]
After removing mean background values for all of the data points, Ki(app) data were calculated from non-linear regression analysis of the initial rate data using the Prism software package (GraphPad Prism version 3.0 cx for Macintosh, GraphPad Software, San Diego Calif., USA).

Sequence of full-length ATR (Q13535 whole entry): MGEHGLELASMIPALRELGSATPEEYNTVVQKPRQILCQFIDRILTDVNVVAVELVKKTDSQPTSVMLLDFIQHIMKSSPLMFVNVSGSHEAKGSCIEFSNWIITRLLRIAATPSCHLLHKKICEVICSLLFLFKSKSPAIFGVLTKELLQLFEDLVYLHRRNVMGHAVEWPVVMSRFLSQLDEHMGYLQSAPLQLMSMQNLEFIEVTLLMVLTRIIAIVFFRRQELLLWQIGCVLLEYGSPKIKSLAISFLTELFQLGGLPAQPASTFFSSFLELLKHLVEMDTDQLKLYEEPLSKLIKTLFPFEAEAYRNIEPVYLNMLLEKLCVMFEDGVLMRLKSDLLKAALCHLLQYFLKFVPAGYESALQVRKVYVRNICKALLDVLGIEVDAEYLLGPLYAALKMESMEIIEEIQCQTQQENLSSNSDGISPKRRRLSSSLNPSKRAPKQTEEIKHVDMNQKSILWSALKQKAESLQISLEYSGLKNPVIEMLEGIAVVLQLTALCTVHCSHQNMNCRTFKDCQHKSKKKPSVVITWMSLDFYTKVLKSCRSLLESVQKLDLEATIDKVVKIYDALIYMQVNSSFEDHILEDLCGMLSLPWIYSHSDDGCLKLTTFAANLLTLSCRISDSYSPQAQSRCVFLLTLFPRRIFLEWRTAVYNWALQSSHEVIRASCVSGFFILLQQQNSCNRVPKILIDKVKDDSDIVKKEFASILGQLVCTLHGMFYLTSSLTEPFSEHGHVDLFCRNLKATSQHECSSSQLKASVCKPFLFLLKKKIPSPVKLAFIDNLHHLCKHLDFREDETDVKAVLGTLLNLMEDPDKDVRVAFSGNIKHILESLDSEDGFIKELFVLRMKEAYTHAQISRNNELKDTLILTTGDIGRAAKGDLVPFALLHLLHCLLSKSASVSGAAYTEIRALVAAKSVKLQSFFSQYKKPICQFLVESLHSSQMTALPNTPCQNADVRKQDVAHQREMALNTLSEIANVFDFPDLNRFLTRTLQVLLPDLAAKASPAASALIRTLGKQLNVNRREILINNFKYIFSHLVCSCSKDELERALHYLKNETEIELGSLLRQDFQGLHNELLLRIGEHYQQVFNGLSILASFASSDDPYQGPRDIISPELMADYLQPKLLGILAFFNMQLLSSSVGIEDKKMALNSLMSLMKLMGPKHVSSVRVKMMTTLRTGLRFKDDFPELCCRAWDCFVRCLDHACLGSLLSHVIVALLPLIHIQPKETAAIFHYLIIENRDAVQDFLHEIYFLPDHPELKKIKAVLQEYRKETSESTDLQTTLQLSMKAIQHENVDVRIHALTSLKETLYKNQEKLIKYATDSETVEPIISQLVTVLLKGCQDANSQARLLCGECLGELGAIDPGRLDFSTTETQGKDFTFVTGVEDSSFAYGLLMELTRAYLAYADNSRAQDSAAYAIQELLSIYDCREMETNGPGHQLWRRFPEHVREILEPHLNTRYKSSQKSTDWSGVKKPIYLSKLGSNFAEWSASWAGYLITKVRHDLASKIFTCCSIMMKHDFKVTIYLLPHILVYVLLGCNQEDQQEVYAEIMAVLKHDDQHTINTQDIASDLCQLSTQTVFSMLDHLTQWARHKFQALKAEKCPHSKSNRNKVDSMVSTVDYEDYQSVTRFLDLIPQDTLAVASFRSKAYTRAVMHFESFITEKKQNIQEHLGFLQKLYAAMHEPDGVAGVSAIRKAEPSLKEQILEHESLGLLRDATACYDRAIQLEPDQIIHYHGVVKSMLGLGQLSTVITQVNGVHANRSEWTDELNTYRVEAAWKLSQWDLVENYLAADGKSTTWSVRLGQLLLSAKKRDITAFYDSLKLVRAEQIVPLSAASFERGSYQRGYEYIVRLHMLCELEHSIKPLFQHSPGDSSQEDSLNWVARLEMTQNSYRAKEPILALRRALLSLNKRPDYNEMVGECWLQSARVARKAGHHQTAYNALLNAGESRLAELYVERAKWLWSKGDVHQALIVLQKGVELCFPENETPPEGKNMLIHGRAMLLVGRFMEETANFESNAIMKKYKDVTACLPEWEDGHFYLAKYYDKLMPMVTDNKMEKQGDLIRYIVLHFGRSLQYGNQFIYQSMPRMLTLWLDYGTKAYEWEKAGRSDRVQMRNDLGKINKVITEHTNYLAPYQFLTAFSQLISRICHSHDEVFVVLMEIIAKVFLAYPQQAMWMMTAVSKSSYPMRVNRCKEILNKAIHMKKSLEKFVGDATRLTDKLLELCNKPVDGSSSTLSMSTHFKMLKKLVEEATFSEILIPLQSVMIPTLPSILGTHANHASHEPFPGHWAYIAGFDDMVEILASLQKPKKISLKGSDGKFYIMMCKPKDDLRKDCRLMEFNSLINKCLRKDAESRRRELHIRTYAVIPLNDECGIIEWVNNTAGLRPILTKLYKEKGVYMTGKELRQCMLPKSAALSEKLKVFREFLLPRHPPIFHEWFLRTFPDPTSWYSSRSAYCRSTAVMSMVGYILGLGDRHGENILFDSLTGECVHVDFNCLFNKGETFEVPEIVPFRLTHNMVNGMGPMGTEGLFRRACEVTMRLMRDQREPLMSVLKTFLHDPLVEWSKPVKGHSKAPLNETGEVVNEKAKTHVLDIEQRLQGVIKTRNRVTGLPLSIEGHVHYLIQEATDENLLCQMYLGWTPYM

Structure (SMILES) | Ki [µM]
Nc1nn2cc(F)cnc2c1C(=O)Nc1cnccc1-c1ccc(C(=O)N2CCN3CCC2CC3)cc1F [I-C-50, N-(4-(4-(1,4-diazabicyclo[3.2.2]nonane-4-carbonyl)-2-fluorophenyl)pyridin-3-yl)-2-amino-6-fluoropyrazolo[1,5-a]pyrimidine-3-carboxamide] | 0.01 to 1
Nc1nn2cc(F)cnc2c1C(=O)Nc1cncc(F)c1N1CCC(C(=O)O)CC1 [I-N-92, 1-(3-(2-amino-6-fluoropyrazolo[1,5-a]pyrimidine-3-carboxamido)-5-fluoropyridin-4-yl)piperidine-4-carboxylic Acid] | 1 to 5
